ChEMBL document CHEMBL6153074, “Discovery of novel dual tubulin and MMPs inhibitors for the treatment of lung cancer and overcoming drug resistance” (Eur J Med Chem, 2025)
Calls of active or inactive are those of the source. The calls are words filed in the database; no cut-off is given here.

How the values were obtained:
[1] = system: A549; experiment: Induction of mitochondrial fragmentation in human A549 cells assessed as increase in green fluorescence at 0.5 uM incubated for 24 hrs by JC-1 dye based analysis; type: functional, cell-based
[2] = system: A549; experiment: Downregulation of IKK-beta phosphorylation in TNF-alpha-treated human A549 cells by Western blot analysis; type: functional, cell-based
[3] = system: A549; experiment: Induction of mitochondrial membrane potential loss in human A549 cells at 0.25 uM incubated for 24 hrs by JC-1 dye based analysis (reference value: 3.14 %); type: functional
[4] = system: A549; experiment: Induction of cell cycle arrest in human A549 cells assessed as accumulation at G1 phase at 0.5 uM incubated for 24 hrs by PI staining based flow cytometry (reference value: 58.67 %); type: functional
[5] = system: A549; experiment: Induction of intracellular ROS accumulation in human A549 cells at 0.25 uM incubated for 24 hrs by DCFH-DA dye based flow cytometry (reference value: 4.96 %); type: functional
[6] = system: MDA-MB-231; experiment: Antiproliferative activity against human MDA-MB-231 cells by CCK8 assay
[7] = system: A549; experiment: Induction of apoptosis in human A549 cells assessed as decrease in Bcl-2 level at 0.5 uM incubated for 24 hrs by Western blot analysis; type: functional, cell-based
[8] = system: A549; experiment: Induction of cell cycle arrest in human A549 cells assessed as accumulation at G2 phase at 0.5 uM incubated for 24 hrs by PI staining based flow cytometry (reference value: 3.37 %); type: functional
[9] = system: A549; experiment: Induction of DNA damage in human A549 cells assessed as increase in gamma-H2AX level at 0.5 uM incubated for 24 hrs by immunofluorescence based analysis; type: functional, cell-based
[10] = Antiproliferative activity against human L02 cells by CCK8 assay; type: toxicity, cell-based
[11] = target: Tubulin (Homo sapiens) (UniProt P68371+Q9H4B7+P0DPH7+P68366+Q13509+Q71U36+P04350+Q3ZCM7+P07437+P68363+Q9BQE3+Q6PEY2+Q13885+Q9BVA1+Q9BUF5); experiment: Inhibition of tubulin polymerization (unknown origin) incubated for 65 mins by fluorescence based analysis; type: protein-complex assay; details: dose 0.625-20 µM
[12] = system: A549; experiment: Induction of apoptosis in human A549 cells assessed as early apoptotic cells at 0.25 uM incubated for 24 hrs by Annexin V-FITC/PI staining based flow cytometry (reference value: 3.04 %); type: functional
[13] = system: A549; experiment: Induction of cell cycle arrest in human A549 cells assessed as accumulation at G1 phase at 0.25 uM incubated for 24 hrs by PI staining based flow cytometry (reference value: 58.67 %); type: functional
[14] = system: A549; experiment: Induction of cell cycle arrest in human A549 cells assessed as decrease in cdc25c by Western blot analysis; type: functional, cell-based
[15] = system: A549; experiment: Induction of cell cycle arrest in human A549 cells assessed as decrease in cyclin B1 by Western blot analysis; type: functional, cell-based
[16] = Toxicity in BALB/c mouse xenografted with human A549 cells assessed as effect on heart at 10 to 20 mg/kg, ip for 3 weeks administered on every 2 days by H and E staining based analysis; type: organism-based; details: in vivo, 504 h, dose 10-20 mg/kg
[17] = system: A549; experiment: Induction of apoptosis in human A549 cells assessed as viable cells at 0.25 uM incubated for 24 hrs by Annexin V-FITC/PI staining based flow cytometry (reference value: 95.82 %); type: functional; details: read-out: Activity

## CCOP(=O)(OCC)C(Nc1ccc(CC(=O)Oc2cc(/C=C/C(=O)c3cc(OC)c(OC)c(OC)c3)ccc2OC)cc1)c1cccc([N+](=O)[O-])c1 (configuration not stated)
[1]
  Activity: Active
[2]
  Activity: Active
[3]
  Activity: 27.19%
[4]
  Activity: 15.53%
[5]
  Activity: 36.07%
[6]
  IC50: 296 nM
[7]
  Activity: Active
[8]
  Activity: 81.23%
[9]
  Activity: Active
[10]
  IC50: 2210 nM
[11]
  inhibition: Dose-dependent-effect
[12]
  Activity: 16.18%
[13]
  Activity: 42.09%
[14]
  Activity: Active
[15]
  Activity: Active
[16]
  Activity: Non-toxic
[17]
  viability at 0.25 µM: 79.9%
